According to patent US9796672B2, “Isoindoline compositions and methods for treating neurodegenerative disease” (Cognition Therapeutics, Inc., priority 2014, dated 2017):
Entries after “also recorded” stand apart in the source; their conditions may differ.

Assays:
[1] = test system: MDA-MB-435 or MDA-MB231 or SKOV-3 cells; test: Tumor cell viability (MTS) assay; assay type: cell-based
Description: The cytotoxicity of test compounds is determined using the CellTiter96 Aqueous One Solution Assay (Promega, Madison, Wis.). Briefly, MDA-MB-435 or MDA-MB231 or SKOV-3 cells were seeded in a 96-well plate at a density of 2000 cells/well on the day prior to treatment with sigma-2 receptor selective ligands. […] The plate is read at 490 nm in a Victor3 plate reader (PerkinElmer Life and Analytical Sciences, Shelton, Conn.). The EC^50 value, defined as the concentration of the sigma ligand required to inhibit cell viability by 50% relative to untreated cells, is determined from the dose response curve for each cell line. Siramesine is accepted as an agonist.

neurons = conditions: 24 hours treatment; cited from earlier work
caspase-3 = conditions: cited from earlier work; for caspase-3 activation: tumor cells and neurons
[2] = test system: Abeta oligomer-induced synapse loss in primary hippocampal neurons; test: Abeta 1-42 oligomer binding and synapse loss assay; assay type: cell-based, rat
Description: Primary hippocampal neuronal culture is established as in the membrane trafficking assay above. […] Pretreatment with test compounds for 1 hr and addition of Abeta oligomers or no oligomer (vehicle alone) is followed by incubation for an additional 23 hrs.
The plates are then washed 3× with PBS for 5 min each. The plates are blocked at RT for 1 hr in 5% goat serum and 0.5% Triton X-100 in PBS. Primary antibodies (anti-MAP 2 polyclonal, Millipore #AB5622 and anti-Beta Amyloid 6E10 monoclonal, Covance #SIG-39300, at 1 microgram/ml, and rabbit polyclonal anti-synaptophysin, Anaspec, at 0.2 microgram/ml) were diluted 1:1000 in 5% goat serum with PBS. Primary antibodies are incubated overnight at 4° C. The plates are then washed 3× with PBS for 5 min each. Secondary antibodies (Alex Flor 488 polyclonal, Invitrogen #A11008 and Alexa Flor 647 monoclonal, Invitrogen #A21235) are diluted 1:1000 in 5% goat serum with PBS. Secondary antibodies are incubated at RT for 1 hr. The plates are washed once with PBS. DAPI (4′,6-diamidino-2-phenylindole, Invitrogen) is then applied at 0.03 ug/ul and incubated at RT for 5 min, then washed with PBS.

[3] = test system: Abeta oligomer-induced membrane trafficking deficits in primary hippocampal neurons; test: Membrane trafficking/exocytosis (MTT) assay; conditions: read-out: Membrane Trafficking EC50; compound dosed prior to Abeta oligomer addition
Description: Primary hippocampal neurons from E18 Sprague-Dawley rat embryos were plated at optimized concentrations in 384 well plates in NB media (Invitrogen). Neurons were maintained in cultures for 3 weeks, with twice weekly feeding of NB media with N2 supplement (Invitrogen).
MTT reagent (3-(4,5-dimethylthizaol-2yl)-2,5diphenyl tetrazolium bromide) (Roche Molecular Biochemicals) was reconstituted in phosphate buffered saline to 5 mg/mL. 10 μL of MTT labeling reagent is added to each well and incubated at 37° C. for 1 h, then imaged. Exocytosis was assessed by automated microscopy and image processing to quantify the amount of endocytosed and exocytosed formazan.
Each assay plate was formatted so that compounds are tested with and without Abeta oligomer on each plate. […] Reduced formazan was first visible in intracellular vesicles. […] The dye precipitated in the aqueous environment of the culture and formed needle-shaped crystals on the surface of the neuron.

Sigma-2 receptor = Sigma-2 receptor competitive radioligand binding assay; parameters: species or system rat; conditions: read-out: Sigma-2 Receptor Affinity, Ki
Description: Radioligand binding assays for Sigma-1 receptors and Sigma-2 receptors were carried out by a commercial contract research organization. For Sigma-1 binding, various concentrations of test compounds from 100 μM to 1 nM were used to displace 8 nM [^3H](+)pentazocine from endogenous receptors on Jurkat cell membranes (Ganapathy M E et al. 1991, J Pharmacol. Exp. Ther. 289:251-260). 10 μM Haloperidol was used to define non-specific binding. For Sigma-2 receptors various concentrations of test compounds from 100 μM to 1 nM were used to displace 5 nM [^3H] […] (Bowen W D, et al. 1993, Mol. Neuropharmcol 3:117-126). 10 μM Haloperidol was used to define non-specific binding. Reactions were terminated by rapid filtration through Whatman GF/C filters using a Brandel 12R cell harvester followed by two washes with ice-cold buffer. Radioactivity on the dried filter discs was measured using a liquid scintillation analyzer (Tri-Carb 2900TR; PerkinElmer Life and Analytical Sciences). The displacement curves were plotted and the Ki values of the test ligands for the receptor subtypes were determined using GraphPad Prism (GraphPad Software Inc., San Diego, Calif.). The percentage specific binding was determined by dividing the difference between total bound (disintegrations per minute) and nonspecific bound (disintegrations per minute) by the total bound (disintegrations per minute).
The affinity of candidate sigma-2 ligand compounds at sigma-1 and sigma-2 receptors was also determined by displacement of different known labeled sigma-2 or sigma-1 ligands. Filtration assays were conducted according the previously published procedure (Xu, et al., 2005). Test compounds were dissolved in N,N-Dimethylformamide (DMF), dimethyl sulfoxide (DMSO) or ethanol and then diluted in 50 mM Tris-HCl pH 7.4 buffer containing 150 mM NaCl and 100 mM EDTA. Membrane homogenates were made from guinea pig brain for sigma-1 binding assay and rat liver for sigma-2 binding assay. Membrane homogenates were diluted with 50 mM Tris-HCl buffer, pH 8.0 and incubated at 25° C. in a total volume of 150 uL in 96 well plates with the radioligand and test compounds with concentrations ranging from 0.1 nM to 10 uM. After incubation was completed, the reactions were terminated by the addition of 150 uL of ice-cold wash buffer (10 mM Tris HCl, 150 mM NaCl, pH 7.4) using a 96 channel transfer pipette (Fisher Scientific, Pittsburgh, Pa.) and the samples harvested and filtered rapidly through 96 well fiber glass filter plate (Millipore, Billerica, Mass.) that had been presoaked with 100 uL of 50 mM Tris-HCl buffer. Each filter was washed four times with 200 uL of ice-cold wash buffer (10 mM Tris-HCl, 150 mM NaCl, pH 7.4). A Wallac 1450 MicroBeta liquid scintillation counter (Perkin Elmer, Boston, Mass.) was used to quantitate the bound radioactivity.
Nonspecific binding was determined from samples that contained 10 uM of cold haloperidol.
The binding affinity, Ki values was calculated using the method of Cheng and Prusoff.

[4] = Mouse liver microsome (MLM) stability; assay type: in vitro ADME; conditions: mouse, microsomes
Description: A first pharmacokinetic study was performed in microsomes of mice mouse liver microsomes, MLM) by a commercial contract research organization. The studies were performed according to Obach, R. S et al. (1997) J. Pharmacol. Exp. Ther., 283: 46-58, which is incorporated herein by reference.

Sigma-1 receptor = Sigma-1 receptor competitive radioligand binding assay; conditions: read-out: Sigma-1 Receptor Affinity, Ki
Description: Radioligand binding assays for Sigma-1 receptors and Sigma-2 receptors were carried out by a commercial contract research organization. For Sigma-1 binding, various concentrations of test compounds from 100 μM to 1 nM were used to displace 8 nM [^3H](+)pentazocine from endogenous receptors on Jurkat cell membranes (Ganapathy M E et al. 1991, J Pharmacol. Exp. Ther. 289:251-260). 10 μM Haloperidol was used to define non-specific binding. […] 10 μM Haloperidol was used to define non-specific binding. Reactions were terminated by rapid filtration through Whatman GF/C filters using a Brandel 12R cell harvester followed by two washes with ice-cold buffer. Radioactivity on the dried filter discs was measured using a liquid scintillation analyzer (Tri-Carb 2900TR; PerkinElmer Life and Analytical Sciences). The displacement curves were plotted and the Ki values of the test ligands for the receptor subtypes were determined using GraphPad Prism (GraphPad Software Inc., San Diego, Calif.). The percentage specific binding was determined by dividing the difference between total bound (disintegrations per minute) and nonspecific bound (disintegrations per minute) by the total bound (disintegrations per minute).

neuronal cultures = test: Functional neuronal phenotype in neuronal cultures; assay type: cell-based; parameters: key: Antagonist: antagonists (block Abeta signaling); Agonist: agonists (block Abeta signaling with U-shaped dose-response curve and toxicity at high doses); Inactive: inactive (no effect in neuronal cultures)
Description: Neuronal cultures are treated with various concentrations of sigma compounds for 24 hours and nuclear intensity compared to vehicle is measured.

potassium channel hERG = potassium channel hERG (Homo sapiens (Human), UniProt Q12809); test: In vitro toxicity, hERG inhibition; assay type: biochemical
Sequence of potassium channel hERG (Q12809 whole entry): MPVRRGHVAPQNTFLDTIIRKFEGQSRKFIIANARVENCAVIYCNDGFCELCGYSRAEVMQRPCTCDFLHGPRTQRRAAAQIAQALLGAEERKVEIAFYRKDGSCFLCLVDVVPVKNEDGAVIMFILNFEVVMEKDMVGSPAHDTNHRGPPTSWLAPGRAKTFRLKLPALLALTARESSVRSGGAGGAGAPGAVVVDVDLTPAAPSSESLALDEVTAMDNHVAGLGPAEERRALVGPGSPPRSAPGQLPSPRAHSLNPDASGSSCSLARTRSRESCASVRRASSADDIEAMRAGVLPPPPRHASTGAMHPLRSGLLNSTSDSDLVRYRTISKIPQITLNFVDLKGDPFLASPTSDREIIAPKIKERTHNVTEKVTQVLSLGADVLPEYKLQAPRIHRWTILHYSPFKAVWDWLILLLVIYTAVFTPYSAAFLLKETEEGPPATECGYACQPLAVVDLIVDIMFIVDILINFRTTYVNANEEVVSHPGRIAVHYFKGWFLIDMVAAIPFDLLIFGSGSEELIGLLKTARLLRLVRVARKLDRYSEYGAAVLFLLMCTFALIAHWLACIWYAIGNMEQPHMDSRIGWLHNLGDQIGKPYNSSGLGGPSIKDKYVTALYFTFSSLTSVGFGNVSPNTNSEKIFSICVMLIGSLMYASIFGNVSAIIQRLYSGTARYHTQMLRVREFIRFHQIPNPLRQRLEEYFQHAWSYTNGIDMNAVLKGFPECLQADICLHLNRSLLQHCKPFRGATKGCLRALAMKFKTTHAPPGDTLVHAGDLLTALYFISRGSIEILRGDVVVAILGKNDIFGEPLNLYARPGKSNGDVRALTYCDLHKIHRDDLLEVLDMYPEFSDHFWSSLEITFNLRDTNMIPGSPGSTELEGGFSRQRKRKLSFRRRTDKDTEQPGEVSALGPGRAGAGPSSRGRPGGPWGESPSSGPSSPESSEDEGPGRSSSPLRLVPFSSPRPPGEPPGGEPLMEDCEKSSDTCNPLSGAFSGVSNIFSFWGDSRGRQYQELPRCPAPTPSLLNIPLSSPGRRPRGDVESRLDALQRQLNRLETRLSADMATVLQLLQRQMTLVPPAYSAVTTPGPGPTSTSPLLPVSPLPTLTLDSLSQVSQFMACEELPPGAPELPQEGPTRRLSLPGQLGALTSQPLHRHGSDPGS
Description: In vitro toxicity for Test Compounds is tested in a number of standard assays.

Ki (Sigma-2 receptor) [nM] | Mouse liver microsomes, MLM t½ [4] [h] | Ki (Sigma-1 receptor) [nM] | SMILES | EC50 [3] [nM] | neuronal phenotype (neuronal cultures) | IC50 (potassium channel hERG) [nM] | also measured
– | – | – | COc1ccc(C)cc1NC(=O)OC1C[C@H]2CCC[C@@H](C1)N2CCCCCCN (stereo partly drawn) [SV-119] | – | – | – | Action [1]: Full agonist; IC50 ([1]; read-out: IC50, 48 hrs., Tumor cell viability, 48 hrs): 21700 ± 2900 nM; nuclear morphology / nuclear intensity in neurons (neurons): cause significant abnormal nuclear morphology in neurons; caspase-3 activation (caspase-3): activate caspase-3 in tumor cells and neurons
– | – | – | CCCN(CCC)CCc1ccc(OC)c(OCCc2ccccc2)c1 [NE-100] | – | – | – | elimination of Abeta oligomer-induced synapse loss [2]: completely eliminated synapse loss
– | – | – | O=C(CCCN1CCC(O)(c2ccc(Cl)cc2)CC1)c1ccc(F)cc1 [haloperidol] | – | – | – | elimination of Abeta oligomer-induced synapse loss [2]: completely eliminated synapse loss
– | – | – | CCC(Oc1ccc(Cl)cc1)C(=O)OC1CC2CCC(C1)N2C (stereo not drawn) [SM-21] | – | – | – | elimination of Abeta oligomer-induced synapse loss [2]: only weakly active in eliminating synapse loss; synapse loss recovery [2]: 20%
3.6 | 0.15 | 2.1 | CC(C)(CCc1ccc(F)cc1)N1Cc2ccc(F)cc2C1 [compound 35] | 2200 | Antagonist | 130 | –
– | – | – | COc1cc2c(cc1OC)CN(CCCCNC(=O)c1cc(C)ccc1OC)CC2 [RHM-1, N-[4-(3,4-dihydro-6,7-dimethoxyisoquinolin-2(1H)-yl)butyl]-2-methoxy-5-methylbenzamide] | – | – | – | Action [1]: Antagonist; nuclear morphology / nuclear intensity in neurons (neurons): do not decrease nuclear intensity; caspase-3 activation (caspase-3): do not induce caspase-3 activity; inhibition of caspase-3 activation (caspase-3; tumor cells): inhibits the activation in tumor cells
190 | 1.6 | 2800 | COc1cc(CCC(C)(C)N2Cc3ccc(F)cc3C2)ccc1OCCO [compound 45] | > 20000 | Inactive | 220 | –
> 10000 | 8.47 | 10000 | CC(C)(C)Oc1cc(CCC(C)(C)N2Cc3cccc(C(=O)O)c3C2)ccc1O [compound 75] | > 20000 | Inactive | 100000 | –
95 | 0.433 | 700 | CN(C)C(=O)c1cccc2c1CN(C(C)(C)CCc1ccc(O)c(OC(F)(F)F)c1)C2 [compound 57] | > 20000 | Inactive | 5000 | –
– | – | – | Fc1ccc(-n2cc(CCCCN3CCC4(CC3)OCc3ccccc34)c3ccccc32)cc1 [Siramesine] | – | – | – | Action [1]: Full agonist; nuclear morphology / nuclear intensity in neurons (neurons): cause significant abnormal nuclear morphology in neurons; caspase-3 activation (caspase-3): activate caspase-3 in tumor cells and neurons; also recorded: induces caspase-3 activity
910 | 2.1 | 220 | COc1cc(CC[C@@H](C)N2Cc3ccc(F)cc3C2)ccc1OCCO [compound 30] | 300 | Antagonist | 4700 | –
